Source: US20090131539A1 (priority 2005, published 2009)

System: Varroa mites
Experiment: Test set-up 2004: honeybee colonies infested with Varroa mites, count of mites fallen down in the hive
Format: in vivo, Varroa destructor or Varroa jacobsoni
Description: For the test set-up 2004 two bee colonies (A and B) were chosen, which were not used for honey production because of the medium applied for subsequent evaluation of residues and also because colony B was a swarming colony. Each colony consisted of approx. 25,000 animals. Both colonies were housed each in two so-called ‘Herold’ or ‘Zeitler’ hives with 10 frames. Their infestation, colony size, brood and general state was examined and approved.
In the beginning only hive A was treated with the mixture, hive B remained untreated in order to gain reference data. Over a period of 3½ months seven treatments took place with a longer break period of more than 30 days between two treatment cycles. At the end, two treatments with Perizin® were carried out in order to check on remaining mite infestation.
Approx. […] The hive was opened and from the top the medium was finely distributed with the lance at 5 cm intervals into the spaces between the frames. First the lower than immediately the upper frame was treated.
Before the hive was covered again two minutes were allowed for aeration. The time needed for treatment of each hive was one to two minutes (without aeration).
In order to ascertain the amount of mites fallen down in the hive the floor boards of both hives (A and B) were lined entirely with two ‘diapers’ and covered with Vaseline coated paper. This was done in order to make sure that mites which might have been still alive were prevented from running away. This process was repeated after every mite count.
The colonies C to L represented reference colonies and served to ascertain the Varroa density at the location (those hives were only lined with diapers). As those were predominantly migrating colonies they were not available throughout the whole duration of the treatment, but they still represent the general situation.
Especially as many apiarists relocate their hives there is always infestation with Varroa in spite of preventive measures taken. When recording the mites found amounts of 50 animals were counted exactly.
The course of the test is outlined here in note form: […]

Question: With `O=CO` [formic acid] as the molecule, how does the “count of mites fallen down in the hive” value (reference colony C, check-up 6 Sep. 2004, after formic acid (60%) evaporation of 30 Aug., amounts above 50 partially counted and extrapolated) read?
Answer: The value was 1.200.

Question: And the “count of mites fallen down in the hive” value (reference colony C, check-up 20 Sep. 2004, after second formic acid treatment of 6 Sep.)?
Answer: The value was 160.

Question: What about the “count of mites fallen down in the hive” value (reference colony D, check-up 6 Sep. 2004, after formic acid (60%) evaporation of 30 Aug., amounts above 50 partially counted and extrapolated) of the same molecule?
Answer: The value was 600.

Question: What about the “count of mites fallen down in the hive” value (reference colony D, check-up 20 Sep. 2004, after second formic acid treatment of 6 Sep.) of the same molecule?
Answer: Its value is 40.

Question: What about the “count of mites fallen down in the hive” value (reference colony E, check-up 6 Sep. 2004, after formic acid (60%) evaporation of 30 Aug., amounts above 50 partially counted and extrapolated) of the same molecule?
Answer: Its value is 400.

Question: And the “count of mites fallen down in the hive” value (reference colony E, check-up 20 Sep. 2004, after second formic acid treatment of 6 Sep.)?
Answer: Its value is 50.

Question: And the “count of mites fallen down in the hive” value (reference colony F, check-up 6 Sep. 2004, after formic acid (60%) evaporation of 30 Aug.)?
Answer: The value was 50.

Question: What about the “count of mites fallen down in the hive” value (reference colony F, check-up 20 Sep. 2004, after second formic acid treatment of 6 Sep.) of the same molecule?
Answer: Its value is 10.

Question: What about the “count of mites fallen down in the hive” value (reference colony G, check-up 6 Sep. 2004, after formic acid (60%) evaporation of 30 Aug., amounts above 50 partially counted and extrapolated) of the same molecule?
Answer: Its value is 400.

Question: What about the “count of mites fallen down in the hive” value (reference colony G, check-up 20 Sep. 2004, after second formic acid treatment of 6 Sep.) of the same molecule?
Answer: Its value is 100.

Question: What about the “count of mites fallen down in the hive” value (reference colony H, check-up 6 Sep. 2004, after formic acid (60%) evaporation of 30 Aug., amounts above 50 partially counted and extrapolated) of the same molecule?
Answer: The value was 500.

Question: And the “count of mites fallen down in the hive” value (reference colony H, check-up 20 Sep. 2004, after second formic acid treatment of 6 Sep.)?
Answer: The value was 240.

Question: And the “count of mites fallen down in the hive” value (reference colony I, check-up 6 Sep. 2004, after formic acid (60%) evaporation of 30 Aug.)?
Answer: The value was 50.

Question: And the “count of mites fallen down in the hive” value (reference colony I, check-up 20 Sep. 2004, after second formic acid treatment of 6 Sep.)?
Answer: Its value is 38.

Question: And the “count of mites fallen down in the hive” value (reference colony J, check-up 6 Sep. 2004, after formic acid (60%) evaporation of 30 Aug., amounts above 50 partially counted and extrapolated)?
Answer: The value was 200.

Question: What about the “count of mites fallen down in the hive” value (reference colony J, check-up 20 Sep. 2004, after second formic acid treatment of 6 Sep.) of the same molecule?
Answer: The value was 44.

Question: And the “count of mites fallen down in the hive” value (reference colony K, check-up 6 Sep. 2004, after formic acid (60%) evaporation of 30 Aug., amounts above 50 partially counted and extrapolated)?
Answer: The value was 200.

Question: And the “count of mites fallen down in the hive” value (reference colony K, check-up 20 Sep. 2004, after second formic acid treatment of 6 Sep.)?
Answer: The value was 60.

Question: And the “count of mites fallen down in the hive” value (reference colony L, check-up 6 Sep. 2004, after formic acid (60%) evaporation of 30 Aug., amounts above 50 partially counted and extrapolated)?
Answer: The value was 200.

Question: What about the “count of mites fallen down in the hive” value (reference colony L, check-up 20 Sep. 2004, after second formic acid treatment of 6 Sep.) of the same molecule?
Answer: The value was 100.
